Test results published in ChEMBL document CHEMBL5442168, “ASAP - In vitro liver microsomal stability” (2024).
“And” between values parts separate entries of the source, which are not always exact repeats. Equal values may be shown once.

Legend:
[1] = (§1) Human liver microsomal stability of compound in microsomal protein, PBS buffer pH 7.4, NADPH, glucose-6-phosphate and glucose-6-phosphate dehydrogenase media. Aliquotes were taken at 5 time points and after stopping the reaction, supernatants were analyzed using HPLC coupled with a tandem mass spectrometer. The elimination constant, half-life, and intrinsic clearance are determined as results using linear regression analysis. The assay has been performed by Enamine biological services, Bienta Ltd.The protocol is publicly available: dx.doi.org/10.17504/protocols.io.5qpvokdb9l4o/v1; type: ADME, microsomes, Microsome; conditions: for half-life / microsomal CLint: liver microsomes; for Remaining / Remaining (without cofactor) / CLint / T1/2: microsomes
[2] = as §1, with “Mouse” for “Human”; type: ADME, microsomes, Microsome; conditions: for half-life / microsomal CLint: liver microsomes; for Remaining / Remaining (without cofactor) / CLint / T1/2: microsomes
For Remaining (without cofactor) in this document: time not given here.
For Remaining in this document: time not given here.

Row | Structure (SMILES) | half-life [1] | microsomal CLint [1] | Remaining [1] | Remaining (without cofactor) [1] | half-life [2] | microsomal CLint [2] | Remaining [2] | Remaining (without cofactor) [2] | CLint [2] | T1/2 [2] | CLint [1] | T1/2 [1]
1 | CCNC(=O)c1cc2c(N[C@@H](c3ccc4c(c3)S(=O)(=O)NCC4)C(C)C)ncnc2[nH]1 | 19.7 min | 85 µL/min/mg | 24% | 107% | 36.8 min | 45 µL/min/mg | 49% | 101% | – | – | – | –
2 | O=C(Nc1ccccc1)Nc1ccc(C(=O)NC2c3cccc(O)c3CC2C(=O)O)cc1 (stereo unspecified) | 187 min | 9 µL/min/mg | 123% | 96% | 1070 min | 2 µL/min/mg | 111% | 99% | – | – | – | –
3 | C[C@@H](C(=O)O)[C@@H](NC(=O)c1ncnc2[nH]ccc12)c1ccc(Br)cc1 | 338 min | 5 µL/min/mg | 103% | 110% | 433 min | 4 µL/min/mg | 94% | 109% | – | – | – | –
4 | COc1ccc([C@@H](Cc2nnn[nH]2)NC(=O)c2ncnc3[nH]ccc23)cc1 | 314 min | 5 µL/min/mg | 86% | 110% | 4400 min | – | 96% | 93% | – | – | – | –
5 | CC(C)[C@@H](Nc1ncnc2[nH]ccc12)c1ccc2c(c1)S(=O)(=O)CCO2 | 91.3 min | 18 µL/min/mg | 74% | 92% | 24.2 min | 69 µL/min/mg | 33% | 111% | – | – | – | –
6 | CC(C)[C@@H](Nc1ncnc2[nH]c(-c3ccc4nnn(C)c4c3)cc12)c1ccc2c(c1)S(=O)(=O)CCC2 | 2.2 min | 752 µL/min/mg | 0% | 93% | 7.6 min | 219 µL/min/mg | 3% | 93% | – | – | – | –
7 | CNC(=O)c1cc2c(N[C@@H](c3ccc4c(c3)S(=O)(=O)CCC4)C(C)C)ncnc2[nH]1 | – | – | 25% and 0% | 101% and 94% | 36.5 min | 46 µL/min/mg | 47% and 69% | 100% and 97% | 23 µL/min/mg | 71.6 min | – | –
8 | CC(C)[C@@H](Nc1ncnc2[nH]c(-c3cnn(CC(=O)N(C)C)c3)cc12)c1ccc2c(c1)S(=O)(=O)CCC2 | – | – | – | 92% and 99% | – | – | 31% and 59% | 92% and 102% | 68 µL/min/mg and 31 µL/min/mg | 24.6 min and 53.8 min | 106 µL/min/mg and 297 µL/min/mg | 15.8 min and 5.6 min
9 | CNCc1cc(-c2cc3c(N[C@H](c4ccc5c(c4)S(=O)(=O)CCC5)C(C)C)ncnc3[nH]2)co1 | 25.1 min | 67 µL/min/mg | 33% | 98% | 41.8 min | 40 µL/min/mg | 51% | 96% | – | – | – | –
10 | CNCc1cc(-c2cc3c(N[C@@H](c4ccc5c(c4)S(=O)(=O)NCC5)C(C)C)ncnc3[nH]2)co1 | 35.9 min | 46 µL/min/mg | 47% | 93% | 40 min | 42 µL/min/mg | 49% | 95% | – | – | – | –
11 | CC(C)[C@H](CO)Nc1ncnc2[nH]ccc12 | 289 min | 6 µL/min/mg | 119% | 99% | 171 min | 10 µL/min/mg | 90% | 93% | – | – | – | –
12 | CC(C)[C@@H](Nc1ncnc2[nH]c(-c3ccc4cncn4c3)cc12)c1ccc2c(c1)S(=O)(=O)CCC2 | 8 min | 210 µL/min/mg | 4% | 97% | 9.8 min | 170 µL/min/mg | 6% | 87% | – | – | – | –

Next, values leading:

Row | half-life [1] | microsomal CLint [1] | Remaining [1] | Remaining (without cofactor) [1] | half-life [2] | microsomal CLint [2] | Remaining [2] | Remaining (without cofactor) [2] | CLint [2] | T1/2 [2] | CLint [1] | T1/2 [1] | Structure (SMILES)
13 | 3.3 min | 500 µL/min/mg | 0% | 115% | 48.1 min | 35 µL/min/mg | 54% | 102% | – | – | – | – | CC(C)[C@H](Nc1ncnc2[nH]c(-c3cnn(CC(=O)N(C)C)c3)cc12)c1ccc2c(c1)OCCO2
14 | 1.8 min | 935 µL/min/mg | 0% | 101% | 5.4 min | 311 µL/min/mg | 1% | 90% | – | – | – | – | CC(C)[C@H](Nc1ncnc2[nH]c(-c3cnn(C)c3C#N)cc12)c1ccc2c(c1)S(=O)(=O)CCC2
15 | 11.8 min | 142 µL/min/mg | 9% and 18% | 110% and 114% | 28.1 min | 59 µL/min/mg | 39% and 48% | 98% and 114% | 45 µL/min/mg | 36.8 min | 108 µL/min/mg | 15.4 min | CC(C)[C@@H](Nc1ncnc2[nH]c(-c3cnn(CC(=O)N(C)C)c3)cc12)c1ccc2c(c1)OCCO2
16 | 14.6 min | 115 µL/min/mg | 16% | 101% | 20.7 min | 81 µL/min/mg | 27% | 96% | – | – | – | – | CC(C)[C@H](Nc1ncnc2[nH]c(-c3cnn(C)c3C#N)cc12)c1ccc2c(c1)NC(=O)CO2
17 | 79 min | 21 µL/min/mg | 73% and 56% | 105% and 92% | 21.4 min | 78 µL/min/mg | 27% and 26% | 93% and 110% | 80 µL/min/mg | 20.9 min | 31 µL/min/mg | 54.3 min | CC(C)[C@@H](Nc1ncnc2[nH]ccc12)c1ccc2c(c1)NC(=O)CO2
18 | 16.6 min | 100 µL/min/mg | 18% and 44% | 93% and 109% | 9.4 min | 177 µL/min/mg | 6% and 10% | 97% and 102% | 147 µL/min/mg | 11.3 min | 52 µL/min/mg | 32.3 min | CC(C)[C@@H](Nc1ncnc2[nH]c(-c3cnn(C)c3C#N)cc12)c1ccc2c(c1)NC(=O)CO2
19 | 23.7 min | 70 µL/min/mg | 30% and 43% | 97% and 98% | 11.5 min | 145 µL/min/mg | 9% and 5% | 92% | 189 µL/min/mg | 8.8 min | 51 µL/min/mg | 32.6 min | CC(C)[C@@H](Nc1ncnc2[nH]c(-c3cnn(C)c3C#N)cc12)c1ccc2c(n1)NC(=O)CO2
